According to ChEMBL document CHEMBL4507286 (2021):

Tests used:
[1] = molecular target: Serine/threonine-protein kinase/endoribonuclease IRE1 (Homo sapiens) (UniProt O75460)
[2] = molecular target: Testis-specific serine/threonine-protein kinase 1 (Homo sapiens) (UniProt Q9BXA7)
[3] = molecular target: Myotonin-protein kinase (Homo sapiens) (UniProt Q09013)
[4] = molecular target: Alpha-2C adrenergic receptor (Homo sapiens) (UniProt P18825); settings: Compound concentration 10.0 uM
[5] = molecular target: MAP/microtubule affinity-regulating kinase 4 (Homo sapiens) (UniProt Q96L34)
[6] = system: Receptor-type tyrosine-protein kinase FLT3 (Homo sapiens), P36888 [UNDEFINED MUTATION]
[7] = molecular target: Bone morphogenetic protein receptor type-2 (Homo sapiens) (UniProt Q13873)
[8] = molecular target: Homeodomain-interacting protein kinase 1 (Homo sapiens) (UniProt Q86Z02)
[9] = molecular target: Serine/threonine-protein kinase N2 (Homo sapiens) (UniProt Q16513)
Serine/threonine-protein kinase N2 (Homo sapiens), sequence (Q16513 whole entry, looked up): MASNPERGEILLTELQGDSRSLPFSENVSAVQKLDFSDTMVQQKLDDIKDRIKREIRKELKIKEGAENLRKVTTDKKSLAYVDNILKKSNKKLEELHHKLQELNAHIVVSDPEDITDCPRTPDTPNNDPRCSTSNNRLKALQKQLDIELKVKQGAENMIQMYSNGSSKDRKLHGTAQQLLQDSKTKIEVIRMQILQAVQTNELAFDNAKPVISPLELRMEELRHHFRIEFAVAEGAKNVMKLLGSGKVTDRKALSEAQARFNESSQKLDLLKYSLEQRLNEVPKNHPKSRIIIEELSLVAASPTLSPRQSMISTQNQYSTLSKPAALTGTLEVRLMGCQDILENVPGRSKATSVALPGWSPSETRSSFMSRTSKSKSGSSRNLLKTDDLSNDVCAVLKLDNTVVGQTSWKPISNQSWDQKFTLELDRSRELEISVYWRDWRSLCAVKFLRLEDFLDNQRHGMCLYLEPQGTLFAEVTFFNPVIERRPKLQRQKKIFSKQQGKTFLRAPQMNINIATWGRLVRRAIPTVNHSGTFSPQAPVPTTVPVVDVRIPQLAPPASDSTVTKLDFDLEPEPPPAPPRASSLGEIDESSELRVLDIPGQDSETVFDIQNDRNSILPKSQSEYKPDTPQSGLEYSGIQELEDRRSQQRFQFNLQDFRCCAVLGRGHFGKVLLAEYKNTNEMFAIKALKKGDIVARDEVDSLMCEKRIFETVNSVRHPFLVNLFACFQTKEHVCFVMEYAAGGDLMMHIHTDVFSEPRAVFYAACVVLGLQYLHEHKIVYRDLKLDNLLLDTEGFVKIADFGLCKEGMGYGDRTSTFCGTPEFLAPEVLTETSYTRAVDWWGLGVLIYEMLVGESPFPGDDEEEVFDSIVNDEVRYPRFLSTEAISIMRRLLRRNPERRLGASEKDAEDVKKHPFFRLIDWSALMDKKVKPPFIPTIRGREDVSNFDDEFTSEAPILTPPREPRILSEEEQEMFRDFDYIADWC

[10] = system: Epidermal growth factor receptor (Homo sapiens), P00533 [UNDEFINED MUTATION]
Epidermal growth factor receptor (Homo sapiens), P00533 [UNDEFINED MUTATION], sequence (P00533 whole entry, looked up, change not shown): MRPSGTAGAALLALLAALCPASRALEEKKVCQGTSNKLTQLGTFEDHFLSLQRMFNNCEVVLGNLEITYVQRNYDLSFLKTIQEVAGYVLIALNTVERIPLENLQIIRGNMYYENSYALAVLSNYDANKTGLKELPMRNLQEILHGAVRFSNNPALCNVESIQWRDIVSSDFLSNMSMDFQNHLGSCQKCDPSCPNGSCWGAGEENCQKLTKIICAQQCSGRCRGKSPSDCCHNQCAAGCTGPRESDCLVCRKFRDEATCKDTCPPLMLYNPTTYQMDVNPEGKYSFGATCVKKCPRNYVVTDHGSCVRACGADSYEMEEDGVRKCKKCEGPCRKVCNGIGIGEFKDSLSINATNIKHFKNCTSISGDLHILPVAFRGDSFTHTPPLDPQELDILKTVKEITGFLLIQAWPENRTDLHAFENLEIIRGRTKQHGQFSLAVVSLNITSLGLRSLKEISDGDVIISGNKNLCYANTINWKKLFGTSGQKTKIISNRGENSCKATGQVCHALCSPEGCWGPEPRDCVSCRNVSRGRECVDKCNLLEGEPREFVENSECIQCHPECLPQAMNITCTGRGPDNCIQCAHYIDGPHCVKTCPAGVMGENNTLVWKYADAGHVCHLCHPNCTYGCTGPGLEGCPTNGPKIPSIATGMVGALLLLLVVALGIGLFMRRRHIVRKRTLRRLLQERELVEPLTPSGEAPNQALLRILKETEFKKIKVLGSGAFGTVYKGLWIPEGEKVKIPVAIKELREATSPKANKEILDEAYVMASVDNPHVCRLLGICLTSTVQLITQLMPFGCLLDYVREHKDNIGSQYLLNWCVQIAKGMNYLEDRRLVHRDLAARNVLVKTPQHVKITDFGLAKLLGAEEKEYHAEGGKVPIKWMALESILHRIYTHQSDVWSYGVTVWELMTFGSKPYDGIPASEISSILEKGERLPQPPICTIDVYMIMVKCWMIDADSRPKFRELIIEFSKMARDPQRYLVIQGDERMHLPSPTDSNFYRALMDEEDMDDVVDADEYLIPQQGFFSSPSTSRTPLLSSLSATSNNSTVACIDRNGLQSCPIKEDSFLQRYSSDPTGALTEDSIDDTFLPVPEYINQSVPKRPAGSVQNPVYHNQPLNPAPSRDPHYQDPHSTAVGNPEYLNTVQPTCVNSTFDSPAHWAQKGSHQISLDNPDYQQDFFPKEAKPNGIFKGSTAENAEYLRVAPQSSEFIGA

[11] = molecular target: Serine/threonine-protein kinase PAK 3 (Homo sapiens) (UniProt O75914)
[12] = molecular target: Cyclin-dependent kinase 9 (Homo sapiens) (UniProt P50750)
[13] = molecular target: Interleukin-1 receptor-associated kinase 4 (Homo sapiens) (UniProt Q9NWZ3)
Interleukin-1 receptor-associated kinase 4 (Homo sapiens), sequence (Q9NWZ3 whole entry): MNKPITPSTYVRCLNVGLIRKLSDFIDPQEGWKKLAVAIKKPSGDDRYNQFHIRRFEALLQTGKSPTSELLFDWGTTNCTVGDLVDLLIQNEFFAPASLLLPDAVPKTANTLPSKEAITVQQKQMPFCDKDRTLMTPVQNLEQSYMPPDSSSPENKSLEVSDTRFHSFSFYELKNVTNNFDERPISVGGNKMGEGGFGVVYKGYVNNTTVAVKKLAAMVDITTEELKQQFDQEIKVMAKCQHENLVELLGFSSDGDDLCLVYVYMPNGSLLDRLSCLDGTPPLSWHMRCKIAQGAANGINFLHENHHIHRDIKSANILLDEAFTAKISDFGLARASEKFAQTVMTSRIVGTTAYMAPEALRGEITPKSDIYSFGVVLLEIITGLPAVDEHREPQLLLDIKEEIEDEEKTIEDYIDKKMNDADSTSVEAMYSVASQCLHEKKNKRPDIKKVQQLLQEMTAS

[14] = molecular target: STE20/SPS1-related proline-alanine-rich protein kinase (Homo sapiens) (UniProt Q9UEW8)
[15] = molecular target: Calcium/calmodulin-dependent protein kinase type II subunit delta (Homo sapiens) (UniProt Q13557)
[16] = molecular target: Casein kinase I isoform alpha (Homo sapiens) (UniProt P48729)
Casein kinase I isoform alpha (Homo sapiens), sequence (P48729 2-337 limits assumed): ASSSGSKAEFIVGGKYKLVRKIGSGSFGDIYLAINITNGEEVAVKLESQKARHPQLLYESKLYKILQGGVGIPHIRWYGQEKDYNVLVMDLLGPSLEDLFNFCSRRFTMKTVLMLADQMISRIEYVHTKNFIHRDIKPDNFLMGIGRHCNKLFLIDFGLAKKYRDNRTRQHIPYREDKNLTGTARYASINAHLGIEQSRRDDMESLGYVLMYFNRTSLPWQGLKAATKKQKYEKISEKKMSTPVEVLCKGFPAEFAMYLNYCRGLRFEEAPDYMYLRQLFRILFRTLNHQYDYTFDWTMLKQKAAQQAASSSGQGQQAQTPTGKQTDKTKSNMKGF

[17] = molecular target: Dual specificity protein kinase CLK3 (Homo sapiens) (UniProt P49761)
[18] = molecular target: Tyrosine-protein kinase BTK (Homo sapiens) (UniProt Q06187)
[19] = molecular target: Dual specificity mitogen-activated protein kinase kinase 5 (Homo sapiens) (UniProt Q13163)
[20] = molecular target: BDNF/NT-3 growth factors receptor (Homo sapiens) (UniProt Q16620)
[21] = molecular target: D(1A) dopamine receptor (Homo sapiens) (UniProt P21728); settings: Compound concentration 10.0 uM
D(1A) dopamine receptor (Homo sapiens), sequence (P21728 whole entry): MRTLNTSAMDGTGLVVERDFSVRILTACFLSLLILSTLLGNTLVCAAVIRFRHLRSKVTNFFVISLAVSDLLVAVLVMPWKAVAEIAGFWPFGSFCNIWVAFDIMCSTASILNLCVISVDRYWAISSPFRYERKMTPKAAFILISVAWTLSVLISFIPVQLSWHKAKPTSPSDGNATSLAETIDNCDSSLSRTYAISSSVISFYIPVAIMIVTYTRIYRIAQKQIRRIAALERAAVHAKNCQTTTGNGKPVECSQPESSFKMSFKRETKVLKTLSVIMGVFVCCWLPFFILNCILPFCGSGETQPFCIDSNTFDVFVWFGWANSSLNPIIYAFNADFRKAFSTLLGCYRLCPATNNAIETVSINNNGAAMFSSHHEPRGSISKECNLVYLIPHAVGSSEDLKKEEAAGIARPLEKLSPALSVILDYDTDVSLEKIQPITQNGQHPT

[22] = molecular target: Serine/threonine-protein kinase pim-1 (Homo sapiens) (UniProt P11309)
[23] = molecular target: Mitogen-activated protein kinase kinase kinase kinase 5 (Homo sapiens) (UniProt Q9Y4K4)
[24] = molecular target: 5-hydroxytryptamine receptor 5A (Homo sapiens) (UniProt P47898); settings: Compound concentration 10.0 uM
[25] = molecular target: Fibroblast growth factor receptor 3 (Homo sapiens) (UniProt P22607)
[26] = system: Phosphatidylinositol 4,5-bisphosphate 3-kinase catalytic subunit alpha isoform (Homo sapiens), P42336 [C420R]
[27] = species: Rattus norvegicus; settings: Compound concentration 10.0 uM
[28] = molecular target: Serine/threonine-protein kinase MAK (Homo sapiens) (UniProt P20794)
[29] = molecular target: Tyrosine-protein kinase Lck (Homo sapiens) (UniProt P06239)
[30] = system: Phosphatidylinositol 4,5-bisphosphate 3-kinase catalytic subunit alpha isoform (Homo sapiens), P42336 [H1047Y]
[31] = molecular target: NUAK family SNF1-like kinase 2 (Homo sapiens) (UniProt Q9H093)
[32] = molecular target: Mitogen-activated protein kinase kinase kinase 14 (Homo sapiens) (UniProt Q99558)
Mitogen-activated protein kinase kinase kinase 14 (Homo sapiens), sequence (Q99558 whole entry, looked up): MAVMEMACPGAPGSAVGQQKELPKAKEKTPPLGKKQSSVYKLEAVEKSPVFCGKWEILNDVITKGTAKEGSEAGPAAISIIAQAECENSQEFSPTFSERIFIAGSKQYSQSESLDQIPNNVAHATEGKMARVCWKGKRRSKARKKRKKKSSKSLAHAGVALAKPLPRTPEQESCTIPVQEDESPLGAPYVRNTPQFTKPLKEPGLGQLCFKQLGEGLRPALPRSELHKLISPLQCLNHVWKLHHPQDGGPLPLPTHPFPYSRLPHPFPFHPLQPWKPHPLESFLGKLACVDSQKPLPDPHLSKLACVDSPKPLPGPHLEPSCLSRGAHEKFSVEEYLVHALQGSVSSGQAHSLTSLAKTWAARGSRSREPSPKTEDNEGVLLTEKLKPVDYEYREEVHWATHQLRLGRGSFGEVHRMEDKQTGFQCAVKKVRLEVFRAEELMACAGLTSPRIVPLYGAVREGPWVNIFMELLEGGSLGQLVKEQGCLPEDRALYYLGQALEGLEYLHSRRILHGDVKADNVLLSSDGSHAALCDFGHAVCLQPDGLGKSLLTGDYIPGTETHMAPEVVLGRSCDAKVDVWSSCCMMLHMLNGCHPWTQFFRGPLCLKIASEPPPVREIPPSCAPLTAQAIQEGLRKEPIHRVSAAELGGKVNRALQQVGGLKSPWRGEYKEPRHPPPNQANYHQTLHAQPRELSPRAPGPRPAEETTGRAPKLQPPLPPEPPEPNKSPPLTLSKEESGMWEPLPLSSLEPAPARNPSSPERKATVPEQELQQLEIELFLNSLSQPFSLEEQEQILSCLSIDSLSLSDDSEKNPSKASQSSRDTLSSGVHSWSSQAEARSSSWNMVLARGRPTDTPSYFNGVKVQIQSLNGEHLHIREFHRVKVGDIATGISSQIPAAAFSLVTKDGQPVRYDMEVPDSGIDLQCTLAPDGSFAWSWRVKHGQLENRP

[33] = molecular target: Membrane-associated tyrosine- and threonine-specific cdc2-inhibitory kinase (Homo sapiens) (UniProt Q99640)
[34] = molecular target: Vascular endothelial growth factor receptor 3 (Homo sapiens) (UniProt P35916)
[35] = molecular target: Insulin receptor-related protein (Homo sapiens) (UniProt P14616)
[36] = molecular target: Serine/threonine-protein kinase WNK4 (Homo sapiens) (UniProt Q96J92)
[37] = molecular target: Interferon-induced, double-stranded RNA-activated protein kinase (Homo sapiens) (UniProt P19525)
[38] = molecular target: Mitogen-activated protein kinase 12 (Homo sapiens) (UniProt P53778)
[39] = molecular target: Cyclin-dependent kinase 2 homolog (Plasmodium falciparum (isolate 3D7)) (UniProt P61075)
Cyclin-dependent kinase 2 homolog (Plasmodium falciparum (isolate 3D7)), sequence (P61075 whole entry): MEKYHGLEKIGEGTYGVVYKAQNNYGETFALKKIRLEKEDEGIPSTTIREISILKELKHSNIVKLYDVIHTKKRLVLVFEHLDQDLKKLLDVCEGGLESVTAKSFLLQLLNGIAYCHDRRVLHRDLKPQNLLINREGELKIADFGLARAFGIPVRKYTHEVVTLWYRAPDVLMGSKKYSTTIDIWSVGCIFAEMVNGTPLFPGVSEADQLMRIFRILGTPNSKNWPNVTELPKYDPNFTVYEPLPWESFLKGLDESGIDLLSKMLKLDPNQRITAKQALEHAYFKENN

[40] = system: Tyrosine-protein kinase ABL1 (Homo sapiens), P00519 [F317L]
[41] = system: Leucine-rich repeat serine/threonine-protein kinase 2 (Homo sapiens), Q5S007 [G2019S]
[42] = molecular target: Mitogen-activated protein kinase 3 (Homo sapiens) (UniProt P27361)
Mitogen-activated protein kinase 3 (Homo sapiens), sequence (P27361 whole entry): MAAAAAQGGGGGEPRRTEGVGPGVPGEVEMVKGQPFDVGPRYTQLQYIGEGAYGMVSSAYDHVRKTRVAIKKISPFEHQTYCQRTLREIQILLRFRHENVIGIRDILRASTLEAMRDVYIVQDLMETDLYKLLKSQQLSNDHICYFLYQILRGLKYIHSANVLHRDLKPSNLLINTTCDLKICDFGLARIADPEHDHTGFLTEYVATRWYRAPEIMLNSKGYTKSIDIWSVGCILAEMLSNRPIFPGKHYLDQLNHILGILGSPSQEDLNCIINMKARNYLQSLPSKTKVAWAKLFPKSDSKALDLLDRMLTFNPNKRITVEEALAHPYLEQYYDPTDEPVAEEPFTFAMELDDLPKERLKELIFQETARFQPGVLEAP

[43] = system: Tyrosine-protein kinase ABL1 (Homo sapiens), P00519 [H396P]
[44] = molecular target: STE20-like serine/threonine-protein kinase (Homo sapiens) (UniProt Q9H2G2)
[45] = Compound concentration 1000.0 nM
[46] = Compound concentration 100.0 nM

Compound: C[C@H](NC(=O)Nc1cc2[nH]ncc2c(CO)n1)c1ccccn1 [ERKi-NC]
- residual activity [1, 45]: 100%
- residual activity [2, 45]: 99%
- residual activity [3, 45]: 100%
- inhibition [4]: 11.5%
- residual activity [5, 45]: 100%
- residual activity [6, 45]: 100%
- residual activity [7, 45]: 100%
- residual activity [8, 45]: 48.9%
- residual activity [9, 45]: 100%
- residual activity [10, 45]: 100%
- residual activity [11, 45]: 100%
- residual activity [12, 45]: 100%
- residual activity [13, 45]: 100%
- residual activity [14, 45]: 80.9%
- residual activity [15, 45]: 81%
- residual activity [16, 45]: 56.5%
- residual activity [17, 45]: 100%
- residual activity [18, 45]: 92%
- residual activity [19, 45]: 17.6%
- residual activity [20, 45]: 68.5%
- inhibition [21]: 4.28%
- residual activity [22, 45]: 78.2%
- residual activity [23, 45]: 99.6%
- inhibition [24]: 9.46%
- residual activity [25, 45]: 81.8%
- residual activity [26, 45]: 97.1%
- inhibition [27]: -1.65%
- residual activity [28, 45]: 84.1%
- residual activity [29, 45]: 81.5%
- residual activity [30, 45]: 34.6%
- residual activity [31, 45]: 100%
- residual activity [32, 45]: 85%
- residual activity [33, 45]: 100%
- residual activity [34, 45]: 100%
- residual activity [35, 45]: 100%
- residual activity [36, 45]: 100%
- residual activity [37, 45]: 71.8%
- residual activity [38, 45]: 48.4%
- residual activity [39, 45]: 91.1%
- residual activity [40, 45]: 91.9%
- residual activity [41, 45]: 88.8%
- residual activity [42, 45]: 17%
- residual activity [43, 45]: 100%
- residual activity [44, 45]: 76%

Compound: C[C@@H](NC(=O)Nc1cc2[nH]ncc2c(CO)n1)c1ccccc1 [ERKi]
- residual activity [1, 46]: 61.6%
- residual activity [2, 46]: 94.6%
- residual activity [3, 46]: 80.5%
- inhibition [4]: -8.07%
- residual activity [5, 46]: 96%
- residual activity [6, 46]: 80.7%
- residual activity [7, 46]: 70.3%
- residual activity [8, 46]: 83.1%
- residual activity [9, 46]: 83.4%
- residual activity [10, 46]: 94.6%
- residual activity [11, 46]: 100%
- residual activity [12, 46]: 95.4%
- residual activity [13, 46]: 76.1%
- residual activity [14, 46]: 100%
- residual activity [15, 46]: 77.7%
- residual activity [16, 46]: 84.6%
- residual activity [17, 46]: 82.2%
- residual activity [18, 46]: 100%
- residual activity [19, 46]: 89.1%
- residual activity [20, 46]: 63.6%
- inhibition [21]: -3.5%
- residual activity [22, 46]: 90.3%
- residual activity [23, 46]: 86.8%
- inhibition [24]: 1.39%
- residual activity [25, 46]: 85.4%
- residual activity [26, 46]: 89.2%
- inhibition [27]: 8.66%
- residual activity [28, 46]: 97.9%
- residual activity [29, 46]: 94.8%
- residual activity [30, 46]: 75.7%
- residual activity [31, 46]: 76%
- residual activity [32, 46]: 100%
- residual activity [33, 46]: 99.6%
- residual activity [34, 46]: 100%
- residual activity [35, 46]: 82.9%
- residual activity [36, 46]: 100%
- residual activity [37, 46]: 78.1%
- residual activity [38, 46]: 80.7%
- residual activity [39, 46]: 80.1%
- residual activity [40, 46]: 82.1%
- residual activity [41, 46]: 82.7%
- residual activity [42, 46]: 0.2%
- residual activity [43, 46]: 84%
- residual activity [44, 46]: 92.6%
